# Assay results taken from US9051325B2, “Bicyclic [5,6] imidazo pyrimodone compounds for use in the treatment of diseases or conditions mediated by Lp-PLA2” (GlaxoSmithKline Intellectual Property Development Limited, priority 2013, dated 2015).
# Like-named read-outs stand apart in the source and are kept apart here.
# Tests used:
# [1] = target: T1, recombinant human Lp-PLA2 (Homo sapiens, UniProt Q13093); assay: Recombinant human Lp-PLA2 assay (rhLp-PLA2, PED6 assay); type: biochemical
# T1 sequence (Q13093 22-441): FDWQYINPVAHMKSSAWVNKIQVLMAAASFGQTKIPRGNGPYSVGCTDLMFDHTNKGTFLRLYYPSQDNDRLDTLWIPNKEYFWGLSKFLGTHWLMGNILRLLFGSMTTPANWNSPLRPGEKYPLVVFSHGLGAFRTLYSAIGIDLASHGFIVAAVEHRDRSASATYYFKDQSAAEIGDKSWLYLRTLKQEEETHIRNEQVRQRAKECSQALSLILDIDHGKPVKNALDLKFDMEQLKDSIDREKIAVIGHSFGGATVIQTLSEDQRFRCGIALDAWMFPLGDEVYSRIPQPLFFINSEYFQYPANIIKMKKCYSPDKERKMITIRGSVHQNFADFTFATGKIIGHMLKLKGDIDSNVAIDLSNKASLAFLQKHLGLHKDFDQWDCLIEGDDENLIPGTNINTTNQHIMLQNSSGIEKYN
# Summary of the method: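 Compounds were preincubated 30 min with 4 nM […] rhLp-PLA2 in 50 mM HEPES pH 7.4, 150 mM NaCl, 1 mM CHAPS, then PED6 substrate […] was added for 20 min at room temperature in the dark. Fluorescence was read at ex 480/em 540, and pIC50 was fitted from 1:3 serial dilutions.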
# Lp-PLA2 in human plasma = target: T2, Lp-PLA2 in human plasma (Homo sapiens, UniProt Q13093); assay: Lp-PLA2 human plasma assay (Thio-PAF assay); type: biochemical; settings: pooled human plasma; lower bounds; read-out: pIC50 values in the thio-PAF assay (converted)
# T2 construct: from tissue; host or cells: pooled human plasma
# T2 sequence (Q13093 22-441): T1 sequence (Q13093 22-441)
# Summary of the method: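 Pooled human plasma preincubated 30 min with compounds, then given 2-thio-PAF substrate with CPM and NEM in 50 mM HEPES pH 7.4, 150 mM NaCl, 1 mM CHAPS. Reaction quenched after 2 min with TFA and read by fluorescence (ex 380/em 485) after 40 min at room temperature; pIC50 from curve fit.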
# [2] = lower bounds, read-out: pIC50 values in the PED6 assay (converted)
# [3] = read-out: rhLp-PLA2 (PED6 assay) (pIC50) (converted)
"IC50 [1, 2] [nM]","IC50 [1, 3] [nM]",IC50 (Lp-PLA2 in human plasma) [nM],SMILES
≤ 1,0.0158,≤ 100,"CN1c2cc(OCc3ccc(Oc4cncc(C(F)(F)F)c4)c(F)c3)nc(=O)n2CC1(C)C [Example E26, 7-((3-fluoro-4-((5-(trifluoromethyl)pyridin-3-yl)oxy)benzyl)oxy)-1,2,2-trimethyl-2,3-dihydroimidazo[1,2-c]pyrimidin-5(1H)-one]"
≤ 10,3.98,≤ 100,"CC(C)N1c2cc(OCc3cccc(F)c3F)nc(=O)n2CC1(C)C [Example E46, 7-((2,3-difluorobenzyl)oxy)-1-isopropyl-2,2-dimethyl-2,3-dihydroimidazo[1,2-c]pyrimidin5(1H)-one]"
≤ 1,0.631,≤ 100,"[2H]C([2H])(Oc1cc2n(c(=O)n1)CC(C)(C)N2C(C)C)c1cccc(F)c1F [Example E105, 7-(dideutero(2,3-difluorobenzyl)oxy)-1-isopropyl-2,2-dimethyl-2,3-dihydroimidazo-[1,2-c]pyrimidin-5(1H)-one]"
≤ 1,0.316,≤ 100,"CN1c2cc(OCc3ccc(F)c(C#N)c3)nc(=O)n2CC1(C)C [Example E42, 2-fluoro-5-(((1,2,2-trimethyl-5-oxo-1,2,3,5-tetrahydroimidazo[1,2-c]pyrimidin-7-yl)oxy)methyl)benzonitrile]"
≤ 1,–,≤ 100,"CC1(C)Cn2c(cc(OCc3cc(F)c(F)c(F)c3)nc2=O)N1 [Example E50, 2,2-dimethyl-7-((3,4,5-trifluorobenzyl)oxy)-2,3-dihydroimidazo[1,2-c]pyrimidin-5(1H)-one]"
≤ 1,0.794,≤ 100,"CN1c2cc(OCc3cc(F)cc(F)c3)nc(=O)n2CC1(C)C [Example E114, 7-((3,5-difluorobenzyl)oxy)-1,2,2-trimethyl-2,3-dihydroimidazo[1,2-c]pyrimidin-5(1H)-one]"
≤ 10,–,≤ 100,"[2H]C([2H])(Oc1cc2n(c(=O)n1)CC(C)(C)N2C)c1cc(F)cc(F)c1 [Example E93, 7-(dideutero(3,5-difluorobenzyl)oxy)-1,2,2-trimethyl-2,3-dihydroimidazo[1,2-c]pyrimidin-5(1H)-one]"
≤ 1,–,≤ 100,"CC1(C)Cn2c(cc(OCc3cc(F)c(Oc4ccc(Cl)nc4)c(F)c3)nc2=O)N1 [Example E133, 7-((4-((6-chloropyridin-3-yl)oxy)-3,5-difluorobenzyl)oxy)-2,2-dimethyl-2,3-dihydroimidazo[1,2-c]pyrimidin-5(1H)-one]"
≤ 1,–,≤ 100,"N#Cc1cc(COc2cc3n(c(=O)n2)CCN3C2CC2)ccc1Oc1cccc(C(F)(F)F)c1 [Example E18, 5-(((1-cyclopropyl-5-oxo-1,2,3,5-tetrahydroimidazo[1,2-c]pyrimidin-7-yl)oxy)methyl)-2-(3-(trifluoromethyl)phenoxy)benzonitrile]"
≤ 1,–,≤ 100,"C[C@@H]1Cn2c(cc(OCc3ccc(Oc4ccc(C(F)(F)F)nc4)c(F)c3)nc2=O)N1C [Example E107, (R)-7-((3-fluoro-4-((6-(trifluoromethyl)pyridin-3-yl)oxy)benzyl)oxy)-1,2-dimethyl-2,3-dihydroimidazo[1,2-c]pyrimidin-5(1H)-one]"
≤ 1,–,≤ 100,"CC1Cn2c(cc(OCc3ccc(Oc4cc(F)cc(C(F)(F)F)c4)c(C#N)c3)nc2=O)N1C (centres unmarked) [Example E1, 5-(((1,2-dimethyl-5-oxo-1,2,3,5-tetrahydroimidazo[1,2-c]pyrimidin-7-yl)oxy)methyl)-2-(3-fluoro-5-(trifluoromethyl)phenoxy)benzonitrile]"
≤ 1,–,≤ 100,"CC1Cn2c(cc(OCc3ccc(Oc4ccc(C#N)c(C(F)(F)F)c4)c(F)c3)nc2=O)N1C (centres unmarked) [Example E3, 4-(4-(((1,2-dimethyl-5-oxo-1,2,3,5-tetrahydroimidazo[1,2-c]pyrimidin-7-yl)oxy)methyl)-2-fluorophenoxy)-2-(trifluoromethyl)benzonitrile]"
≤ 10,–,≤ 100,"C[C@H]1Cn2c(cc(OCc3ccc(F)c(C#N)c3)nc2=O)N1 [Example E74, (S)-2-fluoro-5-(((2-methyl-5-oxo-1,2,3,5-tetrahydroimidazo[1,2-c]pyrimidin-7-yl)oxy)methyl)benzonitrile]"
≤ 1,–,≤ 100,"CC1Cn2c(cc(OCc3ccc(Oc4ccnc(C(F)(F)F)c4)c(F)c3)nc2=O)N1C (centres unmarked) [Example E31, 7-((3-fluoro-4-((2-(trifluoromethyl)pyridin-4-yl)oxy)benzyl)oxy)-1,2-dimethyl-2,3-dihydroimidazo[1,2-c]pyrimidin-5(1H)-one]"
≤ 10,–,≤ 100,"CN1c2cc(OCc3cccc(F)c3F)nc(=O)n2CC1(C)C [Example E103, 7-((2,3-difluorobenzyl)oxy)-1,2,2-trimethyl-2,3-dihydroimidazo[1,2-c]pyrimidin-5(1H)-one]"
≤ 1,–,≤ 100,"CC1(C)Cn2c(cc(OCc3cc(F)c(Oc4ccc(F)nc4)c(F)c3)nc2=O)N1 [Example E134, 7-((3,5-difluoro-4-((6-fluoropyridin-3-yl)oxy)benzyl)oxy)-2,2-dimethyl-2,3-dihydroimidazo[1,2-c]pyrimidin-5(1H)-one]"
≤ 10,–,≤ 100,"CN1c2cc(OCc3cc(F)c(F)c(F)c3)nc(=O)n2CC1(C)C [Example E110, 1,2,2-trimethyl-7-((3,4,5-trifluorobenzyl)oxy)-2,3-dihydroimidazo[1,2-c]pyrimidin-5(1H)-one]"
≤ 1,0.0794,≤ 100,"CN1c2cc(OCc3cc(F)c(Oc4ccc(F)nc4)c(F)c3)nc(=O)n2CC1(C)C [Example E64, 7-((3,5-difluoro-4-((6-fluoropyridin-3-yl)oxy)benzyl)oxy)-1,2,2-trimethyl-2,3-dihydroimidazo[1,2-c]pyrimidin-5(1H)-one]"
≤ 1,–,≤ 100,"CN1c2cc(OCc3ccc(Oc4ccc(C(F)(F)F)nc4)c(F)c3)nc(=O)n2CC1(C)C [Example E112, 7-((3-fluoro-4-((6-(trifluoromethyl)pyridin-3-yl)oxy)benzyl)oxy)-1,2,2-trimethyl-2,3-dihydroimidazo[1,2-c]pyrimidin-5(1H)-one]"
≤ 1,–,≤ 100,"C[C@H]1Cn2c(cc(OCc3cc(F)c(Oc4ccnc(C(F)(F)F)c4)c(F)c3)nc2=O)N1 [Example E131, (S)-7-((3,5-difluoro-4-((2-(trifluoromethyl)pyridin-4-yl)oxy)benzyl)oxy)-2-methyl-2,3-dihydroimidazo[1,2-c]pyrimidin-5(1H)-one]"
≤ 1,–,≤ 100,"C[C@H]1Cn2c(cc(OCc3ccc(Oc4ccc(Cl)c(C#N)c4)c(F)c3)nc2=O)N1C [Example E89, (S)-2-chloro-5-(4-(((1,2-dimethyl-5-oxo-1,2,3,5-tetrahydroimidazo[1,2-c]pyrimidin-7-yl)oxy)methyl)-2-fluorophenoxy)benzonitrile]"
≤ 1,–,≤ 100,"CC1(C)Cn2c(cc(OCc3ccc(Oc4ccnc(F)c4)c(F)c3)nc2=O)N1 [Example E68, 7-((3-fluoro-4-((2-fluoropyridin-4-yl)oxy)benzyl)oxy)-2,2-dimethyl-2,3-dihydroimidazo[1,2-c]pyrimidin-5(1H)-one]"
≤ 1,0.316,≤ 100,"CC(C)N1c2cc(OCc3cc(F)cc(F)c3)nc(=O)n2CC1(C)C [Example E96, 7-((3,5-difluorobenzyl)oxy)-1-isopropyl-2,2-dimethyl-2,3-dihydroimidazo[1,2-c]pyrimidin-5(1H)-one]"
≤ 1,–,≤ 100,"C[C@@H]1Cn2c(cc(OCc3ccc(Oc4ccnc(C(F)(F)F)c4)c(F)c3)nc2=O)N1C [Example E51, (R)-7-((3-fluoro-4-((2-(trifluoromethyl)pyridin-4-yl)oxy)benzyl)oxy)-1,2-dimethyl-2,3-dihydroimidazo[1,2-c]pyrimidin-5(1H)-one]"
≤ 1,0.126,≤ 100,"C[C@H]1Cn2c(cc(OCc3ccc(Oc4cncc(C(F)(F)F)c4)c(F)c3)nc2=O)N1C [Example E54, (S)-7-((3-fluoro-4-((5-(trifluoromethyl)pyridin-3-yl)oxy)benzyl)oxy)-1,2-dimethyl-2,3-dihydroimidazo[1,2-c]pyrimidin-5(1H)-one]"
≤ 1,–,≤ 100,"CN1c2cc(OCc3cc(F)c(Oc4ccnc(Cl)c4)c(F)c3)nc(=O)n2CC1(C)C [Example E30, 7-((4-((2-chloropyridin-4-yl)oxy)-3,5-difluorobenzyl)oxy)-1,2,2-trimethyl-2,3-dihydroimidazo[1,2-c]pyrimidin-5(1H)-one]"
≤ 10,–,≤ 100,"C[C@H]1Cn2c(cc(OCc3cc(F)c(F)c(F)c3)nc2=O)N1C [Example E108, (S)-1,2-dimethyl-7-((3,4,5-trifluorobenzyl)oxy)-2,3-dihydroimidazo[1,2-c]pyrimidin-5(1H)-one]"
